# Publication PMC9322451 (Clinical Pharmacology in Drug Development, 2022)
# Like-named read-outs stand apart in the source and are kept apart here.
# Columns and labels:
# P‐glycoprotein (P‐gp) = tested on: P‐glycoprotein (P‐gp); parameters: method as in unpublished data; conditions: ref unpublished data; cited from earlier work
# CYP2C19 = tested on: CYP2C19; parameters: method as in unpublished data; conditions: ref unpublished data; cited from earlier work
# [1] = parameters: method as in unpublished data; conditions: ref unpublished data; cited from earlier work
# P‐gp = tested on: P‐gp; parameters: method as in unpublished data; conditions: ref unpublished data, read-out: half maximal inhibitory concentration; cited from earlier work
# neutrophil elastase = conditions: 10 and 25 mg, patients with non–cystic fibrosis bronchiectasis, WILLOW study; cited from earlier work
# [2] = parameters: method as in unpublished data; conditions: oral or intravenous 14C‐brensocatib, rats; ref unpublished data; cited from earlier work
# CYP2C8 = tested on: CYP2C8; parameters: method as in unpublished data; conditions: ref unpublished data; cited from earlier work
# CYP2B6 = tested on: CYP2B6; parameters: method as in unpublished data; conditions: ref unpublished data, read-out: half maximal inhibitory concentration; cited from earlier work
# [3] = parameters: method as in PMID 29484635; conditions: single 35‐mg dose following a high‐fat breakfast; cited from earlier work
# [4] = tested on: breast cancer resistance protein; parameters: method as in unpublished data; conditions: ref unpublished data; cited from earlier work
# CYP2A6 = tested on: CYP2A6; parameters: method as in unpublished data; conditions: ref unpublished data; cited from earlier work
# [5] = Phase 1 part B: PK of single 40 mg oral dose, fasted vs fed (food effect); format: in vivo, human; conditions: for AUC(0-inf) / AUC(0-t) / Cmax / half-life / Tmax: human, plasma
# Method: Participants were admitted to the clinical unit the day before doses were administered on days 1 and 8 and discharged on days 2 and 9, after collection of the 36‐hour postdose PK sample. The washout period between doses was 7 days. […] After dosing, participants were required to remain upright for at least 2 hours and refrain from food and drink for at least 4 hours; water was allowed after 2 hours.
# For part B, blood sampling for PK assessments was performed following single‐dose administration on days 1 and 8 at 0 (predose), 0.25, 0.5, 1, 1.5, 2, 3, 3.5, 4, 6, 8, 10, 12, 24, 36, and 72 hours after dosing. PK parameters included Cmax, tmax, AUClast, AUC∞, CL/F, apparent volume of distribution after drug administration, and t1/2.
# The assay range was 0.250 to 150 ng/mL, with overall precision and accuracy for intra‐ and interassays of 2.2% to 5.9% and −2.7% to 0.3%, respectively.
# PK parameters were generated using noncompartmental analysis and were based on the PK population, which included all participants who received at least 1 dose of assigned treatment (safety population) and had evaluable Cmax and AUC parameters without significant protocol deviations. For part B, the PK population included participants who completed both treatment periods and had sufficient concentration data from both periods to fully derive the PK parameters.
# Estimates and 90% CIs for the differences between treatment means were computed and converted to ratios by antilog transformation. Results for the geometric mean ratio of treatments (fasted vs fed) were tabulated for Cmax, AUClast, and AUC∞.
# Caco‐2 monolayers = tested on: Caco‐2 monolayers; parameters: method as in unpublished data; conditions: ref unpublished data; cited from earlier work
# [6] = oral, 40 mg, Japanese n=9, fasted, least squares mean
# [7] = oral, 40 mg, Japanese n=9, fed, least squares mean
# [8] = oral, 40 mg, White n=10, fasted, least squares mean
# [9] = oral, 40 mg, White n=10, fed, least squares mean
# [10] = po, 40 mg, 40 mg single oral dose, Japanese, fasted, mean (CV%)
# [11] = po, 40 mg, 40 mg single oral dose, Japanese, fed, mean (CV%)
# [12] = po, 40 mg, 40 mg single oral dose, White, fasted, mean (CV%)
# [13] = po, 40 mg, 40 mg single oral dose, White, fed, mean (CV%)
# [14] = po, 40 mg, 40 mg single oral, fasted, Japanese
# [15] = po, 40 mg, 40 mg single oral, fasted, White
structure (smiles),measurement,setting,value
Cn1c(=O)oc2ccc(-c3ccc(C[C@@H](C#N)NC(=O)[C@@H]4CNCCCO4)cc3)cc21 [Brensocatib],substrate status,P‐glycoprotein (P‐gp),substrate
same,CYP inhibition,CYP2C19,no effect
same,degradation in human intestinal microsomes and hepatocytes,[1],minimal degradation
same,IC50,P‐gp,> 11 µM
same,effect on neutrophil elastase and clinical outcomes,neutrophil elastase,reduced neutrophil elastase and improved clinical outcomes
same,"brensocatib in plasma, share of total radioactivity exposure",[2],> 80%
same,"most abundant metabolite in plasma, share of total radioactivity exposure",[2],≈ 3%
same,CYP inhibition,CYP2C8,no effect
same,IC50,CYP2B6,> 30 µM
same,Tmax,[3],3.3 h
same,decrease of AUC with food,[3],9%
same,decrease of Cmax with food,[3],36%
same,substrate status,[4],substrate
same,CYP inhibition,CYP2A6,no effect
same,effect of food on exposure,[5]; 40 mg,no effect
same,CL/F,"[5]; 40 mg single oral, fasted, Japanese",7.7 L/h
same,CL/F,"[5]; 40 mg single oral, fasted, White",6.5 L/h
same,"AUClast GMR (fed/fasted), % (90% CI)","[5]; 40 mg, Japanese n=9",98.4 (94.4‐102.5) %
same,"AUC∞ GMR (fed/fasted), % (90% CI)","[5]; 40 mg, Japanese n=9",99.2 (95.7‐102.8) %
same,"Cmax GMR (fed/fasted), % (90% CI)","[5]; 40 mg, Japanese n=9",82.4 (67.9‐99.9) %
same,Cmax lower in the fed state,"[5]; 40 mg, Japanese participants",17.6%
same,"AUClast GMR (fed/fasted), % (90% CI)","[5]; 40 mg, White n=10",101.3 (96.8‐106.0) %
same,"AUC∞ GMR (fed/fasted), % (90% CI)","[5]; 40 mg, White n=10",99.6 (94.6‐104.9) %
same,"Cmax GMR (fed/fasted), % (90% CI)","[5]; 40 mg, White n=10",101.2 (81.4‐125.9) %
same,AUC(0-inf),[5]; [6],5.27 µg·h/mL
same,AUC(0-t),[5]; [6],4.92 µg·h/mL
same,Cmax,[5]; [6],0.356 µg/mL
same,AUC(0-inf),[5]; [7],5.23 µg·h/mL
same,AUC(0-t),[5]; [7],4.84 µg·h/mL
same,Cmax,[5]; [7],0.293 µg/mL
same,AUC(0-inf),[5]; [8],6.2 µg·h/mL
same,AUC(0-t),[5]; [8],5.15 µg·h/mL
same,Cmax,[5]; [8],0.269 µg/mL
same,AUC(0-inf),[5]; [9],6.18 µg·h/mL
same,AUC(0-t),[5]; [9],5.21 µg·h/mL
same,Cmax,[5]; [9],0.272 µg/mL
same,half-life,"[5]; oral, 40 mg, fasted and fed, White, read-out: Mean t1/2 (converted)",27 to 28 h
same,Tmax,"[5]; oral, 40 mg, fasted, Japanese, read-out: median Tmax",1.3 h
same,Tmax,"[5]; oral, 40 mg, fasted, White, read-out: median Tmax",1.3 h
same,half-life,"[5]; oral, 40 mg, fed, Japanese, read-out: Mean t1/2 (converted)",18.4 h
same,Tmax,"[5]; oral, 40 mg, fed, Japanese, read-out: median Tmax",3 h
same,Tmax,"[5]; oral, 40 mg, fed, White, read-out: median Tmax",2 h
same,AUC(0-inf),[5]; [10],5.47 µg·h/mL
same,AUC(0-t),[5]; [10],5.01 µg·h/mL
same,Cmax,[5]; [10],0.352 µg/mL
same,half-life,"[5]; po, 40 mg, 40 mg single oral dose, Japanese, fasted, mean (CV%), read-out: t1/2 (converted)",19.3 h
same,Tmax,"[5]; po, 40 mg, 40 mg single oral dose, Japanese, fasted, median (range), read-out: Tmax",1.27 h
same,AUC(0-inf),[5]; [11],5.49 µg·h/mL
same,AUC(0-t),[5]; [11],4.98 µg·h/mL
same,Cmax,[5]; [11],0.297 µg/mL
same,half-life,"[5]; po, 40 mg, 40 mg single oral dose, Japanese, fed, mean (CV%), read-out: t1/2 (converted)",19.4 h
same,Tmax,"[5]; po, 40 mg, 40 mg single oral dose, Japanese, fed, median (range), read-out: Tmax",3 h
same,AUC(0-inf),[5]; [12],6.68 µg·h/mL
same,AUC(0-t),[5]; [12],5.48 µg·h/mL
same,Cmax,[5]; [12],0.301 µg/mL
same,half-life,"[5]; po, 40 mg, 40 mg single oral dose, White, fasted, mean (CV%), read-out: t1/2 (converted)",28.9 h
same,Tmax,"[5]; po, 40 mg, 40 mg single oral dose, White, fasted, median (range), read-out: Tmax",1.25 h
same,AUC(0-inf),[5]; [13],6.5 µg·h/mL
same,AUC(0-t),[5]; [13],5.47 µg·h/mL
same,Cmax,[5]; [13],0.302 µg/mL
same,half-life,"[5]; po, 40 mg, 40 mg single oral dose, White, fed, mean (CV%), read-out: t1/2 (converted)",27.5 h
same,Tmax,"[5]; po, 40 mg, 40 mg single oral dose, White, fed, median (range), read-out: Tmax",2 h
same,AUC(0-inf),[5]; [14],5.18 µg·h/mL
same,AUC(0-t),[5]; [14],4.82 µg·h/mL
same,Cmax,[5]; [14],0.338 µg/mL
same,half-life,"[5]; po, 40 mg, 40 mg single oral, fasted, Japanese, read-out: Elimination t1/2 (converted)",18.7 h
same,AUC(0-inf),[5]; [15],6.2 µg·h/mL
same,AUC(0-t),[5]; [15],5.15 µg·h/mL
same,Cmax,[5]; [15],0.269 µg/mL
same,half-life,"[5]; po, 40 mg, 40 mg single oral, fasted, White, read-out: Elimination t1/2 (converted)",28 h
same,Tmax,"[5]; po, 40 mg, 40 mg single oral, fasted, both Japanese and White participants, read-out: Tmax",1.3 h
same,apparent permeability from apical side to basolateral side,Caco‐2 monolayers,9.03 × 10^–6 cm/s
